Measured values published in patent US20220241249A1, “PHARMACEUTICAL COMPOSITION AND KIT CONTAINING NOVEL PENAM DERIVATIVE OR SALT THEREOF AND ONE OR MORE COMPOUNDS SELECTED FROM beta-LACTAMASE INHIBITORY COMPOUND AND ANTIBACTERIAL COMPOUND OR SALTS THEREOF” (priority 2019, published 2022).
Converted amounts (≈) assume the structure as drawn. Like-named read-outs stand apart in the source and are kept apart here.

What was measured:
Test in all cases: Antibacterial activity evaluation test, MIC by broth microdilution (CLSI)
Assay type in all cases: cell-based
[1] = test system: AmpC-derepressed Pseudomonas aeruginosa mutant strain (S-3028); details: Pseudomonas aeruginosa
Description: (§1) The minimum inhibitory concentration (MIC) was measured according to the Clinical and Laboratory Standards Institute (CLSI) standard method by using the following broth microdilution method.
(§2) As bacteria, a Pseudomonas aeruginosa strain ATCC27853, an AmpC-derepressed Pseudomonas aeruginosa mutant strain (S-3028), an IMP-1-containing Pseudomonas aeruginosa strain (S-2838), a VIM-2-containing Pseudomonas aeruginosa strain (S-3779), a GES-19 and GES-20-containing Pseudomonas aeruginosa strain (S-3759), a CTX-M-15-containing Escherichia coli strain (TK-1747), a KPC-2-containing Klebsiella pneumoniae strain (Y-995), an OXA-48-containing Klebsiella pneumoniae strain (Y-1062), and an NDM-1-containing Klebsiella pneumoniae strain (Y-1007) were used. The test bacterial cells that had been cultured overnight on a Mueller Hinton agar medium were scraped off, suspended at a density equivalent to 0.5 McFarland standard, and diluted 10-fold, thereby obtaining an inoculum. A cation-adjusted Mueller Hinton medium containing a test compound was inoculated with 0.005 mL of the inoculum, and the cells were cultured at 35° C. for 16 to 20 hours. The minimum drug concentration at which the growth of bacteria was not visually observed was defined as MIC (μg/mL).
(§3) An antibacterial activity evaluation test was performed in the same manner as in Test Example 1.

[2] = test system: NDM-1-containing Klebsiella pneumoniae strain (Y-1007); details: Klebsiella pneumoniae
Description: as §1, §2, §3

[3] = test system: IMP-1-containing Pseudomonas aeruginosa strain (S-2838); details: Pseudomonas aeruginosa
Description: as §1, §2, §3

[4] = test system: Pseudomonas aeruginosa strain ATCC27853; details: ATCC27853
Description: as §1, §2, §3

[5] = test system: GES-19 and GES-20-containing Pseudomonas aeruginosa strain (S-3759); details: Pseudomonas aeruginosa
Description: as §1, §2, §3

[6] = test system: VIM-2-containing Pseudomonas aeruginosa strain (S-3779); details: Pseudomonas aeruginosa
Description: as §1, §2, §3

[7] = test system: KPC-2-containing Klebsiella pneumoniae strain (Y-995); details: Klebsiella pneumoniae
Description: as §1, §2, §3

[8] = test system: CTX-M-15-containing Escherichia coli strain (TK-1747); details: Escherichia coli
Description: as §1, §2, §3

[9] = test system: OXA-48-containing Klebsiella pneumoniae strain (Y-1062); details: Klebsiella pneumoniae
Description: as §1, §2, §3

SMILES	MIC [1] [µg/mL]	MIC [2] [µg/mL]	MIC [3] [µg/mL]	MIC ([4]; Pseudomonas aeruginosa ATCC 27853, 35° C., 16 to 20 hours, read-out: MIC) [µg/mL]	MIC [5] [µg/mL]	MIC [6] [µg/mL]	MIC [7] [µg/mL]	MIC [8] [µg/mL]	MIC [9] [µg/mL]	MIC ([4]; Pseudomonas aeruginosa) [µg/mL]
CC(C)(O/N=C(\C(=O)N[C@@H]1C(=O)N2C[C@@](C(=O)O)(N3CCN(NC(=O)C(=O)NCCNC(=O)c4ccc(O)c(O)c4Cl)C3=O)S[C@H]12)c1csc(N)n1)C(=O)O [Example 68, (3R,5R,6R)-6-((Z)-2-(2-aminothiazol-4-yl)-2-(((2-carboxypropan-2-yl)oxy)imino)acetamido)-3-(3-(2-((2-(2-chloro-3,4-dihydroxybenzamido)ethyl)amino)-2-oxoacetamido)-2-oxoimidazolidin-1-yl)-7-oxo-4-thia-1-azabicyclo[3.2.0]heptane-3-carboxylic acid]	0.25 (≈ 0.302 µM)	< 0.06	1 (≈ 1.21 µM)	1 (≈ 1.21 µM)	4 (≈ 4.84 µM)	2 (≈ 2.42 µM)	0.5 (≈ 0.604 µM)	1 (≈ 1.21 µM)	1 (≈ 1.21 µM)	–
CC(C)(O/N=C(\C(=O)N[C@@H]1C(=O)N2C[C@@](C(=O)O)(N3CC(CNC(=O)c4ccc(O)c(O)c4Cl)OC3=O)S[C@H]12)c1csc(N)n1)C(=O)O (stereo partly drawn) [Example 73, (3R,5R,6R)-6-((Z)-2-(2-aminothiazol-4-yl)-2-(((2-carboxypropan-2-yl)oxy)imino)acetamido)-3-(5-((2-chloro-3,4-dihydroxybenzamido)methyl)-2-oxooxazolidin-3-yl)-7-oxo-4-thia-1-azabicyclo[3.2.0]heptane-3-carboxylic acid]	0.25 (≈ 0.343 µM)	0.12 (≈ 0.165 µM)	0.5 (≈ 0.687 µM)	–	0.5 (≈ 0.687 µM)	1 (≈ 1.37 µM)	16 (≈ 22 µM)	0.25 (≈ 0.343 µM)	1 (≈ 1.37 µM)	0.5 (≈ 0.687 µM)
CC(C)(O/N=C(\C(=O)N[C@@H]1C(=O)N2C[C@@](C(=O)O)(n3cc(CNC(=O)c4ccc(O)c(O)c4Cl)nn3)S[C@H]12)c1csc(N)n1)C(=O)O [Example 74, (3R,5R,6R)-6-((Z)-2-(2-aminothiazol-4-yl)-2-(((2-carboxypropan-2-yl)oxy)imino)acetamido)-3-(4-((2-chloro-3,4-dihydroxybenzamido)methyl)-1H-1,2,3-triazol-1-yl)-7-oxo-4-thia-1-azabicyclo[3.2.0]heptane-3-carboxylic acid]	0.5 (≈ 0.704 µM)	0.25 (≈ 0.352 µM)	0.25 (≈ 0.352 µM)	–	1 (≈ 1.41 µM)	1 (≈ 1.41 µM)	2 (≈ 2.82 µM)	1 (≈ 1.41 µM)	4 (≈ 5.63 µM)	0.5 (≈ 0.704 µM)
Nc1nc(/C(=N/OC2(C(=O)O)CC2)C(=O)N[C@@H]2C(=O)N3C[C@@](C(=O)O)(N4CCN(NC(=O)C(=O)c5ccc(O)c(O)c5Cl)C4=O)S[C@H]23)c(Cl)s1 [Example 76, (3R,5R,6R)-6-((Z)-2-(2-amino-5-chlorothiazol-4-yl)-2-((1-carboxycyclopropoxy)imino)acetamido)-3-(3-(2-(2-chloro-3,4-dihydroxyphenyl)-2-oxoacetamido)-2-oxoimidazolidin-1-yl)-7-oxo-4-thia-1-azabicyclo[3.2.0]heptane-3-carboxylic acid]	0.12 (≈ 0.155 µM)	0.25 (≈ 0.323 µM)	0.5 (≈ 0.646 µM)	–	0.25 (≈ 0.323 µM)	0.25 (≈ 0.323 µM)	0.25 (≈ 0.323 µM)	0.06 (≈ 0.0776 µM)	0.25 (≈ 0.323 µM)	0.5 (≈ 0.646 µM)
Nc1nc(/C(=N/OC2(C(=O)O)CCC2)C(=O)N[C@@H]2C(=O)N3C[C@@](C(=O)O)(N4CCN(NC(=O)C(=O)c5ccc(O)c(O)c5Cl)C4=O)S[C@H]23)c(Cl)s1 [Example 78, (3R,5R,6R)-6-((Z)-2-(2-amino-5-chlorothiazol-4-yl)-2-((1-carboxycyclobutoxy)imino)acetamido)-3-(3-(2-(2-chloro-3,4-dihydroxyphenyl)-2-oxoacetamido)-2-oxoimidazolidin-1-yl)-7-oxo-4-thia-1-azabicyclo[3.2.0]heptane-3-carboxylic acid]	< 0.06	< 0.06	1 (≈ 1.27 µM)	–	1 (≈ 1.27 µM)	0.25 (≈ 0.317 µM)	0.25 (≈ 0.317 µM)	0.25 (≈ 0.317 µM)	0.25 (≈ 0.317 µM)	0.5 (≈ 0.635 µM)
CC(C)(O/N=C(\C(=O)N[C@@H]1C(=O)N2C[C@@](C(=O)O)(N3CC(=O)N(NC(=O)C(=O)c4ccc(O)c(O)c4Cl)CC3=O)S[C@H]12)c1csc(N)n1)C(=O)O [Example 82, (3R,5R,6R)-6-((Z)-2-(2-aminothiazol-4-yl)-2-(((2-carboxypropan-2-yl)oxy)imino)acetamido)-3-(4-(2-(2-chloro-3,4-dihydroxyphenyl)-2-oxoacetamido)-2,5-dioxopiperazin-1-yl)-7-oxo-4-thia-1-azabicyclo[3.2.0]heptane-3-carboxylic acid]	4 (≈ 5.2 µM)	0.5 (≈ 0.65 µM)	4 (≈ 5.2 µM)	–	2 (≈ 2.6 µM)	1 (≈ 1.3 µM)	4 (≈ 5.2 µM)	1 (≈ 1.3 µM)	2 (≈ 2.6 µM)	0.5 (≈ 0.65 µM)
CC(C)(O/N=C(\C(=O)N[C@@H]1C(=O)N2C[C@@](C(=O)O)(N3CCN(NC(=O)c4cc(Cl)c(O)c(O)c4Cl)C3=O)S[C@H]12)c1csc(N)n1)C(=O)O [Example 83, (3R,5R,6R)-6-((Z)-2-(2-aminothiazol-4-yl)-2-(((2-carboxypropan-2-yl)oxy)imino)acetamido)-3-(3-(2,5-dichloro-3,4-dihydroxybenzamido)-2-oxoimidazolidin-1-yl)-7-oxo-4-thia-1-azabicyclo[3.2.0]heptane-3-carboxylic acid]	0.5 (≈ 0.669 µM)	< 0.06	0.5 (≈ 0.669 µM)	–	1 (≈ 1.34 µM)	0.5 (≈ 0.669 µM)	0.25 (≈ 0.334 µM)	0.5 (≈ 0.669 µM)	2 (≈ 2.68 µM)	0.25 (≈ 0.334 µM)
CC(C)(O/N=C(\C(=O)N[C@@H]1C(=O)N2C[C@@](C(=O)O)(N3CC[C@H](NC(=O)C(=O)c4ccc(O)c(O)c4Cl)C3=O)S[C@H]12)c1csc(N)n1)C(=O)O [Example 84, (3R,5R,6R)-6-((Z)-2-(2-aminothiazol-4-yl)-2-(((2-carboxypropan-2-yl)oxy)imino)acetamido)-3-((S)-3-(2-(2-chloro-3,4-dihydroxyphenyl)-2-oxoacetamido)-2-oxopyrrolidin-1-yl)-7-oxo-4-thia-1-azabicyclo[3.2.0]heptane-3-carboxylic acid]	0.5 (≈ 0.676 µM)	< 0.06	0.5 (≈ 0.676 µM)	–	1 (≈ 1.35 µM)	0.5 (≈ 0.676 µM)	0.5 (≈ 0.676 µM)	< 0.06	< 0.06	0.5 (≈ 0.676 µM)
CC(C)(O/N=C(\C(=O)N[C@@H]1C(=O)N2C[C@@](C(=O)O)(N3CC[C@@H](NC(=O)C(=O)c4ccc(O)c(O)c4Cl)C3=O)S[C@H]12)c1csc(N)n1)C(=O)O [Example 85, (3R,5R,6R)-6-((Z)-2-(2-aminothiazol-4-yl)-2-(((2-carboxypropan-2-yl)oxy)imino)acetamido)-3-((R)-3-(2-(2-chloro-3,4-dihydroxyphenyl)-2-oxoacetamido)-2-oxopyrrolidin-1-yl)-7-oxo-4-thia-1-azabicyclo[3.2.0]heptane-3-carboxylic acid]	0.12 (≈ 0.162 µM)	< 0.06	0.25 (≈ 0.338 µM)	–	0.25 (≈ 0.338 µM)	0.25 (≈ 0.338 µM)	< 0.06	< 0.06	0.12 (≈ 0.162 µM)	0.5 (≈ 0.676 µM)
CC(C)(O/N=C(\C(=O)N[C@@H]1C(=O)N2C[C@@](C(=O)O)(N3CCCN(NC(=O)C(=O)c4ccc(O)c(O)c4Cl)C3=O)S[C@H]12)c1csc(N)n1)C(=O)O [Example 86, (3R,5R,6R)-6-((Z)-2-(2-aminothiazol-4-yl)-2-(((2-carboxypropan-2-yl)oxy)imino)acetamido)-3-(3(-2-(2-chloro-3,4-dihydroxyphenyl)-2-oxoacetamido)-2-oxotetrahydropyrimidin-1(2H)-yl)-7-oxo-4-thia-1-azabicyclo[3.2.0]heptane-3-carboxylic acid]	1 (≈ 1.32 µM)	< 0.06	1 (≈ 1.32 µM)	–	2 (≈ 2.65 µM)	2 (≈ 2.65 µM)	0.5 (≈ 0.662 µM)	1 (≈ 1.32 µM)	1 (≈ 1.32 µM)	4 (≈ 5.3 µM)
CC(C)(O/N=C(\C(=O)N[C@@H]1C(=O)N2C[C@@](C(=O)O)(N3CCN(NC(=O)C(=O)NNC(=O)C(=O)c4ccc(O)c(O)c4Cl)C3=O)S[C@H]12)c1csc(N)n1)C(=O)O [Example 88, (3R,5R,6R)-6-((Z)-2-(2-aminothiazol-4-yl)-2-(((2-carboxypropan-2-yl)oxy)imino)acetamido)-3-(3-(2-(2-(2-(2-chloro-3,4-dihydroxyphenyl)-2-oxoacetyl)hydradienyl)-2-oxoacetamido)-2-oxoimidazolidin-1-yl)-7-oxo-4-thia-1-azabicyclo[3.2.0]heptane-3-carboxylic acid]	0.5 (≈ 0.604 µM)	< 0.06	0.5 (≈ 0.604 µM)	–	0.5 (≈ 0.604 µM)	0.5 (≈ 0.604 µM)	0.25 (≈ 0.302 µM)	2 (≈ 2.42 µM)	0.5 (≈ 0.604 µM)	0.5 (≈ 0.604 µM)
